Data taken from paper PMC10892719 (Pharmaceutics, 2024).
Entries after “also recorded” stand apart in the source; their conditions may differ. Read-outs that look alike come from different tables or passages of the source.

Legend:
[1] = target: T1, equine butyrylcholinesterase (eqBChE) (Equus caballus, UniProt P81908); test: BChE inhibition, adapted Ellman method; assay type: biochemical; details: for SI (selectivity index): IC50 (AChE)/IC50 (BChE); for IC50: eqBChE, mean of two independent experiments ± SD, read-out: BChE Inhib IC50
T1 construct: purchased Sigma-Aldrich (Steinheim, Germany)
Protocol: (§1) The enzyme inhibition of electric eel acetylcholinesterase (eeAChE) and equine butyrylcholinesterase (eqBChE) by our compounds was evaluated through an adaptation of Elmman´s method using reagents from Sigma-Aldrich (Steinheim, Germany). Stock solutions of each compound (1 mg) in MeOH (1 mL) were prepared and then working solutions for each ligand were obtained by the corresponding dilution of the stock solutions. A control measurement with 5 replicates (without ligand) and a calibration curve of 5 points with 3 replicates per point was performed. The preparation of each solution involved fixed volumes of 4-(2-hydroxyethyl)-1-piperazine-ethanesulfonic acid (HEPES) and cholinesterase (eeAChE or eqBChE) with different volumes of ligand solution, and it was left to rest for 15 min immediately after adding the cholinesterase. A blank solution containing HEPES and MeOH was also prepared at the same time. […] The slope for each calibration point (absorbance versus reaction time) was determined and the inhibition for each compound was calculated by using the following equation: %Inhibition=100−(vi/v0×100) where vi is the reaction rate (slope) for each point of the calibrate with ligand and v0 is the initial reaction rate (slope) for the control point (without ligand). […] Experiments were performed twice for each compound.

Aβ1-42 = target: T2, Aβ1-42 (Homo sapiens, UniProt P05067); test: Inhibition of Aβ1-42 self-aggregation, thioflavin T fluorescence; assay type: biochemical; details: Cinhibitor = 20 µM, Aβ1-42 40 µM, 37 °C, 24 h, read-out: Aβ42 Self-Aggreg. Inhib
T2 construct: purchased Genecust, Boynes, France
Protocol: The Aβ peptide (Genecust, Boynes, France) was treated with 1,1,1,3,3,3-hexafluoropropan-2-ol (HFIP, Aldrich, Steinheim, Germany) and dissolved in a CH3CN/Na2CO3 (300 µM)/NaOH (250 µM) ([…], v/v/v) mixture in order to have a stable stock solution of Aβ1-42 with concentration 500 µM.
Solutions of the assayed compounds (0.5 mg/mL) were firstly prepared in 60% (v/v) DMSO/MeOH medium and then diluted in phosphate buffer (0.215 M, pH 8.0) to a concentration of 120 µM. The Aβ1-42 aggregation inhibition assays were performed according to a reported method based on the fluorescence emission of thioflavin T (ThT, Aldrich Steinheim, Germany). Therefore, Aβ1-42 (40 µM) was incubated at 37 °C for 24 h in phosphate buffer and in the presence or absence of each ligand (20 µM). Then, the samples were added to a 96-well plate with 180 µL of 5 µM ThT in 50 mM glycine-NaOH (pH 8.5) buffer. Blank samples were identically prepared for each concentration but in the absence of the peptide. The ThT fluorescence was measured at 445 nm (excitation) and 485 nm (emission). The percent of aggregation inhibition was calculated by the following equation:I% = 100 − (IFi/IF0 × 100), in which IFi and IF0 are the fluorescence intensities, in the presence and the absence of the tested compound, subtracted from the fluorescence intensities due to the respective blanks. The reported values were obtained as the mean ± SEM of two different experiments performed in duplicate.
The inhibitory capacity of the RIV-IND hybrids towards Aβ42 self-aggregation was evaluated in vitro by molecular fluorescence spectroscopy through the thioflavin T (ThT) method. In fact, since there is an increase in the absorbance and emission of ThT when it binds to amyloid fibrils, it is possible to determine the percent of Aβ42 self-aggregation (see Table 1). The assays were performed in the presence of 20 µM of inhibitor to overcome the solubility limitations of some compounds in the phosphate buffer aqueous medium.

SH-SY5Y cells [2] = test: Cell viability dose-response screening, MTT; assay type: cell-based, human; details: 24 h, screening 0.5 µM to 20 µM
Protocol: (§2) Cell viability, following treatment with the compounds, was determined using the colorimetric MTT (3-(4,5-dimethylthiazol-2-yl)-2,5-diphenyltetrazolium bromide) assay. The tested compounds (5a1-3, 5b1-3, 5c1-3) were dissolved in DMSO to produce stock solutions of 25 mM and stored at −20 °C. A concentration screening was performed for 0.5 µM to 20 µM final concentrations to choose the highest nontoxic concentration. SH-SY5Y human neuroblastoma cell line (ATCC-CRL-2266) was cultured in Dulbecco’s modified Eagle’s medium (DMEM) (Gibco-Invitrogen, Life Technologies Ltd., Waltham, MA, USA) with heat-inactivated fetal calf serum (10%), penicillin (50 U/mL) and streptomycin (50 µg/mL) at 37 °C with 5% CO2. Cells were plated at 0.15 × 10^6 cells/mL one day prior to the start of the experiment. The cells were then incubated with the appropriate concentration of the compounds for 24 h. After the incubation period, the cells were washed once with PBS and incubated with 200 µL MTT (0.5 mg/mL) for 2 h at 37 °C with 5% CO2. During this period, cellular dehydrogenase successfully metabolized MTT into formazan, which was then solubilized using 200 µL of 0.04 M HCl/isopropanol. Absorbance was measured at 570 nm.
The new RIV-IND hybrids were tested to determine their protective role in the toxicity induced by either Aβ1-42 peptides or iron/ascorbate. SH-SY5Y cells were incubated with a set of concentrations of each of the compounds and a dose–response curve was constructed to select the highest nontoxic concentration.
Figure 3 Dose–response screening of RIV-IND compounds 5a1-3, 5b1-3 and 5c1-3 measured by MTT reduction ability on SH-SY5Y cells treated with different concentrations of the compounds for 24 h. Results are expressed relatively to untreated cells, with the mean ± standard error of the mean (SEM) derived from three independent experiments. * p < 0.05; ** p < 0.01; *** p < 0.001 compared to untreated cells. (The dot line indicates 100% cellular viability).

[3] = DPPH free radical scavenging (antioxidant) assay; details: read-out: Antioxidant Activity EC50; DPPH method, mean of three independent experiments
Protocol: The radical scavenging activity (antioxidant capacity) of the herein-developed RIV-IND hybrids was determined by the DPPH method [33]. Working solutions of the compounds in 10% DMSO/MeOH (, HoneywellSeelze, Germany) medium were used to prepare 5 methanolic solutions (5 points, 3 replicates) containing DPPH (Sigma-Aldrich, Steinheim, Germany) and different concentrations of compound up to 3.5 mL total volume. […] The respective antioxidant activity (%AA) was calculated using the following equation: %AA=ADPPH−Aligand/ADPPH×100
The reported results were obtained as the mean values of three independent experiments.
The new RIV-IND compounds were also screened for their radical scavenging activity (EC50), according to the 2,2-diphenyl-1-picrylhydrazyl (DPPH) free radical method.

[4] = target: T3, electric eel acetylcholinesterase (eeAChE) (Electrophorus electricus, UniProt O42275); test: AChE inhibition, adapted Ellman method; assay type: biochemical; details: mean of two independent experiments ± SD, read-out: AChE Inhib IC50
T3 construct: purchased Sigma-Aldrich (Steinheim, Germany)
Protocol: as §1

SH-SY5Y cells [5] = test: Neuroprotection against Aβ1-42-induced toxicity, MTT; assay type: cell-based, human; details: Aβ1-42 1 µM, 24 h, optimized concentration of each compound
Protocol: as §2
To test whether the compounds have a protective effect against toxicity induced by Aβ1-42 or iron/ascorbate, the cells were pre-incubated for 1 h with each compound, followed by the addition of Aβ1-42 or iron/ascorbate and incubation for an additional 24 h. Aβ1-42 (Bachem, Torrance, CA, USA) was prepared in sterile water to produce a stock solution of 443 µM and added to the cells at a final concentration of 1 µM. Ferrous sulfate and L-ascorbic acid (Sigma Chemical Co, St. Louis, MO, USA), prepared in sterile water, were added to the medium together at a final concentration of 5 mM and 2.5 mM, respectively. For this assay, the optimal concentration of each compound was used to prevent cellular demise induced by Aβ1-42 or iron/ascorbate. Compound 5a1 was added to the medium at a 1 µM final concentration; compounds 5a2, 5a3, 5b1, 5b2 and 5c2 were added to the medium at a 2.5 µM final concentration; compounds 5c1 and 5c3 were added to the medium at a 5 µM final concentration; and compound 5b3 was added to the medium at a 10 µM final concentration. […] Controls were employed for each plate using untreated cells and Aβ1-42 or iron/ascorbate only. Cell reduction ability was normalized to the untreated condition. All data are expressed as mean ± SEM of at least three independent experiments performed in duplicate. Statistical analyses were performed for normality assessment using Shapiro–Wilk’s test followed by the Kruskal–Wallis test considering that normality was not verified. Post hoc analysis was performed using uncorrected Dunn’s test. A p value < 0.05 was considered statistically significant.
Figure 4 Neuroprotective effect of RIV-IND compounds against cellular toxicity induced by Aβ1-42 measured by MTT reduction ability on SH-SY5Y cells pretreated with […] for one hour, followed by a 24 h incubation with the optimized concentration of each compound. Results are expressed relatively to untreated cells, with the mean ± standard error of the mean (SEM) derived from three to seven independent experiments. * p < 0.05; ** p < 0.01; *** p < 0.001; **** p < 0.0001 compared to untreated cells. # p < 0.05 compared to Aβ1-42-treated cells. (The dot line indicates the decrease in cellular viability induced by Aβ).

SH-SY5Y cells [6] = test: Neuroprotection against iron/ascorbate-induced toxicity, MTT; assay type: cell-based, human; details: ferrous sulfate 5 mM and L-ascorbic acid 2.5 mM, 24 h, optimized concentration of each compound
Protocol: as §2
To test whether the compounds have a protective effect against toxicity induced by Aβ1-42 or iron/ascorbate, the cells were pre-incubated for 1 h with each compound, followed by the addition of Aβ1-42 or iron/ascorbate and incubation for an additional 24 h. Aβ1-42 (Bachem, Torrance, CA, USA) was prepared in sterile water to produce a stock solution of 443 µM and added to the cells at a final concentration of 1 µM. […] All data are expressed as mean ± SEM of at least three independent experiments performed in duplicate. […]
Figure 5 Neuroprotective effect of RIV-IND compounds against cellular toxicity induced by iron/ascorbate (Fe/Asc) measured by MTT reduction ability on SH-SY5Y cells pretreated with iron/ascorbate for one hour, followed by a 24 h incubation with the optimized concentration of each compound. […]

[7] = design: method as in PMID 23344203; details: reference antioxidant; read-out: radical scavenging activity EC50; cited from earlier work

T1 sequence (P81908 whole entry): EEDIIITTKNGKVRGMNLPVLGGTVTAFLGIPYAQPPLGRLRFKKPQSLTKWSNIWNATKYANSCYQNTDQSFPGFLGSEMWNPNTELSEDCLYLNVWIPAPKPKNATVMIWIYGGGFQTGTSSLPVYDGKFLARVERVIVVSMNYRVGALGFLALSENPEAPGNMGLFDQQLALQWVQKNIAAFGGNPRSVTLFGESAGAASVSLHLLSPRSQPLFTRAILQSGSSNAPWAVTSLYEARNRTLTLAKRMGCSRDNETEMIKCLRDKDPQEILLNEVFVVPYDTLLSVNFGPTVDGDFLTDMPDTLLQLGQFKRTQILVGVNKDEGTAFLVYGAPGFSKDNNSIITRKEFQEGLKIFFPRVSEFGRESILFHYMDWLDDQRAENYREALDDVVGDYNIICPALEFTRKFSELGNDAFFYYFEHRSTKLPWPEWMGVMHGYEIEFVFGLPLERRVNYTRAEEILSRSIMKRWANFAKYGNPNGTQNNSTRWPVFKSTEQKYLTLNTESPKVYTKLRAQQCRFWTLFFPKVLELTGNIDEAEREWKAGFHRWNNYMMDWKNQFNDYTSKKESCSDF
T2 sequence (P05067 672-713 limits assumed): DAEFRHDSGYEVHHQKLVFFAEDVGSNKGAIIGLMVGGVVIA
T3 sequence (O42275 24-633): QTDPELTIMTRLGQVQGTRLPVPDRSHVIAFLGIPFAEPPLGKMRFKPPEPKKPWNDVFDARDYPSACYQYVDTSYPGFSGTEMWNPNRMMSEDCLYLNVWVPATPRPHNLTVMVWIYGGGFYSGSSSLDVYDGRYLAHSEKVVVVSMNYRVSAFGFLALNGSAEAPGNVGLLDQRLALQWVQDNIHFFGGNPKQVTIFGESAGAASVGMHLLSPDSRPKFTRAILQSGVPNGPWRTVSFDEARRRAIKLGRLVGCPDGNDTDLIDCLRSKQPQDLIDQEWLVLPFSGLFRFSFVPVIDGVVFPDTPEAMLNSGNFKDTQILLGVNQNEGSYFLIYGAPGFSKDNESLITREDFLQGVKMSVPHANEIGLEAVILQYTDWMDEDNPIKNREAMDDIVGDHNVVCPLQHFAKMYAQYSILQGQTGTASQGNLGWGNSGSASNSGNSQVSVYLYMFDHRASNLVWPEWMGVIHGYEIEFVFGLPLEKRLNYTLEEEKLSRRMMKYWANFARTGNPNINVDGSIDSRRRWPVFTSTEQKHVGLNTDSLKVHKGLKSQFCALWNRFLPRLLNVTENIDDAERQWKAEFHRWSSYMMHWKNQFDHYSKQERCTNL

## CCN(C)C(=O)Oc1cccc(NC(=O)c2cc3ccccc3[nH]2)c1 [Compound 5a1]
[1]
  SI (selectivity index): 6.0
  IC50: 29.9 ± 0.4 µM
Aβ1-42
  inhibition at 20 µM: 26.9%
SH-SY5Y cells [2]
  highest nontoxic concentration: 1 µM
[3]
  EC50: > 2000 µM

## CCN(C)C(=O)Oc1cccc(NC(=O)c2cc3cc(O)ccc3[nH]2)c1 [Compound 5a2, 3-(5-Hydroxy-1H-indole-2-carboxamido)phenyl ethyl(methyl)carbamate]
[4]
  IC50: 206 ± 4 µM
[1]
  SI (selectivity index): 64.0
  IC50: 3.22 ± 0.02 µM
Aβ1-42
  inhibition at 20 µM: 25%
SH-SY5Y cells [2]
  highest nontoxic concentration: 2.5 µM
[3]
  EC50: 8.4 ± 0.2 µM

## CCN(C)C(=O)Oc1cccc(CNC(=O)c2cc3cc(O)ccc3[nH]2)c1 [Compound 5b2, 3-((5-Hydroxy-1H-indole-2-carboxamido)methyl)phenyl-ethyl(methyl)carbamate]
[4]
  IC50: 80 ± 2 µM
[1]
  SI (selectivity index): 3.0
  IC50: 27.1 ± 0.1 µM
Aβ1-42
  inhibition at 20 µM: 29.4%
SH-SY5Y cells [2]
  highest nontoxic concentration: 2.5 µM
SH-SY5Y cells [5]
  neuroprotective effect against toxicity induced by Aβ1-42: can prevent the toxicity induced by Aβ1-42 to cells; also recorded: able to rescue Aβ1-42-induced toxicity to levels that were not significantly different from untreated cells; also recorded: able to prevent the toxicity induced by Aβ1-42 to neuroblastoma cells (SH-SY5Y)
[3]
  EC50: 7.8 ± 0.5 µM

## CCN(C)C(=O)Oc1cccc(CNC(=O)c2cc3cccc(O)c3[nH]2)c1 [Compound 5b3, 3-((7-Hydroxy-1H-indole-2-carboxamido)methyl)phenyl-ethyl(methyl)carbamate]
[4]
  IC50: 80.7 ± 0.4 µM
[1]
  SI (selectivity index): 14.2
  IC50: 5.7 ± 0.3 µM
Aβ1-42
  inhibition at 20 µM: 47.8%
SH-SY5Y cells [2]
  highest nontoxic concentration: 10 µM
SH-SY5Y cells [6]
  neuroprotective effect against toxicity induced by iron/ascorbate: able to significantly increase cell viability after the trigger; also recorded: able to significantly protect cell viability after iron/ascorbate oxidative insult
[3]
  EC50: 20.2 ± 0.4 µM

## CCN(C)C(=O)Oc1cccc(CCNC(=O)c2cc3ccccc3[nH]2)c1 [Compound 5c1, 3-(2-(1H-indole-2-carboxamido)ethyl)phenyl ethylmethylcarbamate]
[4]
  IC50: 40 ± 2 µM
[1]
  SI (selectivity index): 2.8
  IC50: 14.5 ± 0.7 µM
Aβ1-42
  inhibition at 20 µM: 25.6%
SH-SY5Y cells [2]
  highest nontoxic concentration: 5 µM
[3]
  EC50: > 2000 µM

## CCN(C)C(=O)Oc1cccc(CCNC(=O)c2cc3cc(O)ccc3[nH]2)c1 [Compound 5c2, 3-(2-(5-Hydroxy-1H-indole-2-carboxamido)ethyl)phenyl ethyl(methyl)carbamate]
[4]
  IC50: 58.6 ± 0.3 µM
[1]
  SI (selectivity index): 3.8
  IC50: 15.2 ± 0.4 µM
Aβ1-42
  inhibition at 20 µM: 49.9%
SH-SY5Y cells [2]
  highest nontoxic concentration: 2.5 µM
SH-SY5Y cells [5]
  neuroprotective effect against toxicity induced by Aβ1-42: can prevent the toxicity induced by Aβ1-42 to cells; also recorded: able to rescue Aβ1-42-induced toxicity to levels that were not significantly different from untreated cells; also recorded: able to prevent the toxicity induced by Aβ1-42 to neuroblastoma cells (SH-SY5Y)
[3]
  EC50: 8.5 ± 0.6 µM

## CCN(C)C(=O)Oc1cccc(CCNC(=O)c2cc3cccc(O)c3[nH]2)c1 [Compound 5c3, 3-(2-(7-Hydroxy-1H-indole-2-carboxamido)ethyl)phenyl ethyl(methyl)carbamate]
[4]
  IC50: 26.8 ± 0.3 µM
[1]
  SI (selectivity index): 1.8
  IC50: 14.9 ± 0.7 µM
Aβ1-42
  inhibition at 20 µM: 55.5%
SH-SY5Y cells [2]
  highest nontoxic concentration: 5 µM
SH-SY5Y cells [5]
  neuroprotective effect against toxicity induced by Aβ1-42: also present neuroprotection
[3]
  EC50: 20.7 ± 0.4 µM

## Cc1c(O)c(=O)ccn1C [Deferiprone, deferiprone, reference compound]
[3]
  EC50: 148 ± 3 µM

## Cc1c(C)c2c(c(C)c1O)CCC(C)(C(=O)O)O2 (stereo not drawn) [Trolox, reference compound]
[3]
  EC50: 13.8 ± 0.2 µM

## O=C1O[C@H]([C@@H](O)CO)C(O)=C1O [vitamin C]
[7]
  EC50: 15 µM
